# Experimental data published in patent US6399325B1, “DNA encoding a galanin receptor” (priority 1994, dated 2002).
# System: mock transformed CHO cells
# Assay: cAMP assay in mock transformed CHO cells
# Type: cell-based
# Conditions: CHO transformants with the plasmid vector without cDNA insert; forskolin 10 μM, porcine galanin 0.1 μM; 37° C. for 30 min
# Description: CHO-MGR20 or mock transformed CHO cells were incubated with forskolin (10 μM) and porcine galanin (0.1 μM) at 37° C. for 30 min. The reaction was terminated by extracting the cells with ice-cold ethanol. The amounts of intracellular cAMP were quantitated by EIA. Values indicated are mean±S.E.M. in triplicate assays.
# The CHO cells were seeded at 2.0×10^5 cells/well in 24-well tissue culture plates and cultured for two days. The cells were washed two times with HBSS containing 0.1% BSA and 1 mM IBMX, and then the same buffer with experimental agents were added to the wells. After incubation at 37° C. for 30 min, the media were discarded and intracellular cAMP was extracted with ice-cold ethanol. The aliquots of extracts were evaporated and the amounts of cAMP were quantitated by a cAMP EIA system (Amersham) as described by the manufacturer.
# Galanin receptor-mediated inhibition of forskolin-stimulated cAMP production was observed. CHO-MGR20 or mock transformed CHO cells were incubated with forskolin (10 μM) and porcine galanin (0.1 μM) at 37° C. for 30 min. The reaction was terminated by extracting the cells with ice-cold ethanol. The amounts of intracellular cAMP were quantitated by EIA. Values indicated are mean±S.E.M. in triplicate assays.
substance,measurement,value
Porcine Galanin,forskolin-stimulated cAMP accumulation,not inhibited
